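GI50: concentration for 50% inhibition of growth. TGI denotes the concentration required for complete inhibition of growth.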
Experiments:
Experiment in all cases: inhibition of tumour cell growth, NCI panel, 384-well format
[1] = system: MOLT-4 leukemia
[2] = system: NCI-H226 lung
[3] = system: NCI-H23 lung
[4] = system: NCI-H322M lung
[5] = system: NCI-H460 NSCLC
[6] = system: NCI-H522 lung
[7] = system: NCI/ADR-RES ovarian
[8] = system: OVCAR-3 ovarian
[9] = system: OVCAR-4 ovarian
[10] = system: OVCAR-5 ovarian
[11] = system: OVCAR-8 ovarian
[12] = system: PC-3 prostate
[13] = system: RPMI-8226 leukemia
[14] = system: RXF 393 renal
[15] = system: SF-268 CNS
[16] = system: SF-295 CNS
[17] = system: SF-539 CNS
[18] = system: SK-MEL-2 melanoma
[19] = system: SK-MEL-28 melanoma
[20] = system: SK-MEL-5 melanoma
[21] = system: SK-OV-3 ovarian
[22] = system: SNB-19 CNS
[23] = system: SNB-75 CNS
[24] = system: SW-620 colon
[25] = system: T-47D breast
[26] = system: TK-10 renal
[27] = system: U251 glioblastoma
[28] = system: UO-31 renal

Q: Which TGI [1] does the source give for `COC[C@H]1Cn2cc(-c3nc(Nc4ccnn4C)ncc3C)nc2C(=O)N1Cc1ccc(F)c(F)c1` here?
A: 46.5 µM

Q: What about the GI50 [2] of the same compound?
A: 0.612 µM

Q: What about the TGI [2] of the same compound?
A: > 100 µM

Q: What about the GI50 [3] of the same compound?
A: 0.0369 µM

Q: And the TGI [3]?
A: 2.11 µM

Q: What about the GI50 [4] of the same compound?
A: 0.145 µM

Q: What about the TGI [4] of the same compound?
A: > 100 µM

Q: What about the GI50 [5] of the same compound?
A: 2.03 µM

Q: What about the TGI [5] of the same compound?
A: > 100 µM

Q: What about the GI50 [6] of the same compound?
A: 1.09 µM

Q: What about the TGI [6] of the same compound?
A: > 100 µM

Q: What about the GI50 [7] of the same compound?
A: 93.6 µM

Q: And the TGI [7]?
A: > 100 µM

Q: What about the GI50 [8] of the same compound?
A: 43.5 µM

Q: What about the TGI [8] of the same compound?
A: > 100 µM

Q: What about the GI50 [9] of the same compound?
A: 61.9 µM

Q: And the TGI [9]?
A: > 100 µM

Q: What about the GI50 [10] of the same compound?
A: 0.217 µM

Q: What about the TGI [10] of the same compound?
A: > 100 µM

Q: What about the GI50 [11] of the same compound?
A: 71.6 µM

Q: And the TGI [11]?
A: > 100 µM

Q: And the GI50 [12]?
A: 38.4 µM

Q: What about the TGI [12] of the same compound?
A: > 100 µM

Q: What about the GI50 [13] of the same compound?
A: 0.771 µM

Q: What about the TGI [13] of the same compound?
A: 2.6 µM

Q: What about the GI50 [14] of the same compound?
A: 23.6 µM

Q: And the TGI [14]?
A: > 100 µM

Q: What about the GI50 [15] of the same compound?
A: 95.9 µM

Q: What about the TGI [15] of the same compound?
A: > 100 µM

Q: And the GI50 [16]?
A: > 100 µM

Q: What about the TGI [16] of the same compound?
A: > 100 µM

Q: What about the GI50 [17] of the same compound?
A: 18.4 µM

Q: What about the TGI [17] of the same compound?
A: > 100 µM

Q: And the GI50 [18]?
A: 0.0366 µM

Q: What about the TGI [18] of the same compound?
A: 0.196 µM

Q: And the GI50 [19]?
A: < 0.01 µM

Q: And the TGI [19]?
A: 0.108 µM

Q: And the GI50 [20]?
A: 0.064 µM

Q: And the TGI [20]?
A: 35.7 µM

Q: What about the GI50 [21] of the same compound?
A: 18.2 µM

Q: What about the TGI [21] of the same compound?
A: > 100 µM

Q: And the GI50 [22]?
A: 53.2 µM

Q: What about the TGI [22] of the same compound?
A: > 100 µM

Q: What about the GI50 [23] of the same compound?
A: 24.3 µM

Q: And the TGI [23]?
A: > 100 µM

Q: And the GI50 [24]?
A: 0.0875 µM

Q: What about the TGI [24] of the same compound?
A: 58.6 µM

Q: And the GI50 [25]?
A: 53.4 µM

Q: And the TGI [25]?
A: > 100 µM

Q: What about the GI50 [26] of the same compound?
A: 0.79 µM

Q: And the TGI [26]?
A: 76.7 µM

Q: And the GI50 [27]?
A: 2.25 µM

Q: What about the TGI [27] of the same compound?
A: > 100 µM

Q: What about the GI50 [28] of the same compound?
A: 2.73 µM

Q: And the TGI [28]?
A: > 100 µM
